Patent US8362012B2, “Benzoxazine benzimidazole derivative, a pharmaceutical composition comprising the same, and a use thereof” (Daewoong Pharmaceutical Co., Ltd., priority 2008, dated 2013)

Key:
[1] = biological target: T1, human vanilloid-1 (hVR-1) in hVR-1-HEK293 cell line (Homo sapiens, UniProt Q8NER1); assay: Inhibitory effect on calcium influx via a vanilloid receptor (capsaicin-stimulated, Fluo-3/AM); format: cell-based; details: hVR-1-HEK293 cells, 1 μM of capsaicin, compounds 0.015˜2000 nM; read-out: I.A. (inhibitory activity), IC50 on intracellular calcium influx
T1 construct: expressed in transfected cells; host or cells: HEK293 Tet-on strain, doxycycline-induced
T1 sequence (Q8NER1 whole entry): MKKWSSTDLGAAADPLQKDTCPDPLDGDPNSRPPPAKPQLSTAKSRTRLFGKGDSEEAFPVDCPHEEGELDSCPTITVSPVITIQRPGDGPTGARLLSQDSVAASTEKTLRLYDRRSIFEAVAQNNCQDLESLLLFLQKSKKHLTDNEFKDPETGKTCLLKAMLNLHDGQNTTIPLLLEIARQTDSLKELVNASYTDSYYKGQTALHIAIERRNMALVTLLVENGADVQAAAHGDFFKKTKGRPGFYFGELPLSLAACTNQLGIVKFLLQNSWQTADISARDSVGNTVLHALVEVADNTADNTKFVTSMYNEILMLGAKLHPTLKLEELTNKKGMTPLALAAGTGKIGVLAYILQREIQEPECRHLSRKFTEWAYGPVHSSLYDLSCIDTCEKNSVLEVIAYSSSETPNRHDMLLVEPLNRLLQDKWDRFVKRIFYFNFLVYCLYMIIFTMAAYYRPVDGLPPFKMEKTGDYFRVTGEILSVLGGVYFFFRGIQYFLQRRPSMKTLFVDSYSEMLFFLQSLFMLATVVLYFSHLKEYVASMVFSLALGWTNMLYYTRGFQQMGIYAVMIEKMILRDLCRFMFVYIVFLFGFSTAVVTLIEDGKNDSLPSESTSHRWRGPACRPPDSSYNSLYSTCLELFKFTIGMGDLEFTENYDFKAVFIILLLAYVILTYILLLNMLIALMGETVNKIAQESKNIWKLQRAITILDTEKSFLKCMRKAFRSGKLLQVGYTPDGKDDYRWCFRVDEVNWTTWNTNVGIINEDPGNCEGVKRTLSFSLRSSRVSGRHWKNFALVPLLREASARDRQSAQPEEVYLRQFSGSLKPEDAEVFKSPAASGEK
Experimental: The cell line can modulate the expression of VR-1, depending on whether doxycycline, a derivative of tetracycline, is present or not. […] Specifically, hVR-1-HEK293 cells were cultured in a T75 flask to about 80% confluency, separated from the flask by treating with trypsin solution, and then collected by centrifugation. The cells were suspended in a medium containing 1 μg/mL of doxycycline, and the resulting suspension was diluted to a concentration of 2˜4×10^5 cells/mL […], of the cell suspension was placed in each well of a 96-well black plate. The cells were cultured in 5% CO2 incubator at 37° C. for 2 days, and used for the following procedure. […] The cells prepared in 1) above were cultured at 37° C. for 90 min in a solution containing Fluo-3/AM, a fluorescent dye, as a calcium indicator so that the fluorescent dye was permeated into the cells. […] In order to stimulate calcium influx through a vanilloid receptor, the cells were treated with 1 μM of capsaicin. […] The obtained data were input to the Hill equation represented by the following formula I and the values were analyzed: Intracellular calcium influx= [(fluorescent intensity of experimental group−fluorescent intensity of background)/(fluorescent intensity of positive control−fluorescent intensity of background)]*100 [Formula I] The inhibitory activities were evaluated from the obtained intracellular calcium influx values according to the following criteria.

[2] = system: ICR male mice; assay: Phenyl-p-quinone (PBQ)-induced writhing experiment using mice; format: in vivo; details: orally administered, PBQ (0.02%) intraperitoneally after 1 hour; for I.A. (inhibitory activity), % inhibition rate of writhing: writhing counted for 10 min
Experimental: In order to evaluate the effect on pain of the compounds prepared in the Examples, behaviors such as twisting or writhing of body resulted from pain were verified by the phenyl-p-quinone (PBQ)-induced writhing experiment using mice. 5 week-old ICR male mice were used as experimental animals and PBQ (0.02%), as a chemical stimulator. The suspensions of 20 mg of the compounds of the present invention and an excipient such as Na—CMC (sodium carboxymethyl cellulose) in 10 mL of saline were used as test compounds. The test compounds were orally administered to the mice and after 1 hour, PBQ was intraperitoneally administrated in an amount of 10 mL per kg of body weight. Also, as a control group, equivalent amounts of BCTC were administered. The writhing number of each mouse was measured for 10 min starting from 5 min after the administration, and the analgesic effect was verified by counting the reduced number compared to the control group administered with only excipient and calculating the % inhibitory rate according to the following Formula 2. % inhibition rate=(writhing # of control group−writhing # of test group)/writhing # of control group×100 [Formula 2]

Compound	IC50 [1]	I.A. (inhibitory activity), % inhibition rate of writhing [2]	% inhibition rate of writhing [2]
FC(F)(F)c1ccc2nc(-c3cccc4c3OCCN4c3ccc(Br)cn3)[nH]c2c1 [Example 19, 4-(5-bromo-pyridin-2-yl)-8-(6-trifluoromethyl-1H-benzimidazol-2-yl)-3,4-dihydro-2H-benzo[1,4]oxazine]	20 to 100 nM	++ (20˜50%)	
Cc1ccc(N2CCOc3c(-c4nc5cc(Cl)c(Cl)cc5[nH]4)cccc32)nc1 [Example 28, 8-(5,6-dichloro-1H-benzimidazol-2-yl)-4-(5-methyl-pyridin-2-yl)-3,4-dihydro-2H-benzo[1,4]oxazine]	20 to 100 nM	+ (<20%)	
Cc1ccc(N2c3cccc(-c4nc5ccc(C(C)(C)C)cc5[nH]4)c3OC[C@@H]2CO)nc1 [Example 34, [(S)-8-(6-tert-butyl-1H-benzimidazol-2-yl)-4-(5-methyl-pyridin-2-yl)-3,4-dihydro-2H-benzo[1,4]oxazin-3-yl]-methanol]	< 20 nM	+ (<20%)	
Cc1ccc(N2c3cccc(-c4nc5ccc(C(F)(F)F)cc5[nH]4)c3OC[C@@H]2CO)nc1 [Example 35, [(S)-4-(5-methyl-pyridin-2-yl)-8-(6-trifluoromethyl-1H-benzimidazol-2-yl)-3,4-dihydro-2H-benzo[1,4]oxazin-3-yl]-methanol]	< 20 nM	+++ (51-80%)	
C=Cc1ccc(N2c3cccc(-c4nc5ccc(C#N)cc5[nH]4)c3OC[C@@H]2CO)nc1 [Example 73, (S)-2-(3-(hydroxymethyl)-4-(5-vinyl-pyridin-2-yl)-3,4-dihydro-2H-benzo[b][1,4]oxazin-8-yl)-1H-benzo[d]imidazol-6-carbonitrile]	101 to 500 nM		
C=Cc1ccc(N2c3cccc(-c4nc5ccccc5[nH]4)c3OC[C@@H]2CO)nc1 [Example 75, (S)-(8-(1H-benzo[d]imidazol-2-yl)-4-(5-vinyl-pyridin-2-yl)-3,4-dihydro-2H-benzo[b][1,4]oxazin-3-yl)methanol]	101 to 500 nM		
C=Cc1ccc(N2c3cccc(-c4nc5c(C)cccc5[nH]4)c3OC[C@@H]2CO)nc1 [Example 76, (S)-(8-(4-methyl-1H-benzo[d]imidazol-2-yl)-4-(5-vinyl-pyridin-2-yl)-3,4-dihydro-2H-benzo[b][1,4]oxazin-3-yl)methanol]	20 to 100 nM		
CCc1ccc(N2c3cccc(-c4nc5ccc(C(C)(C)C)cc5[nH]4)c3OC[C@@H]2CO)nc1 [Example 78, [(S)-8-(6-tert-butyl-1H-benzimidazol-2-yl)-4-(5-ethyl-pyridin-2-yl)-3,4-dihydro-2H-benzo[1,4]oxazin-3-yl]-methanol]	20 to 100 nM		
CCc1ccc(N2c3cccc(-c4nc5ccc(C(F)(F)F)cc5[nH]4)c3OC[C@@H]2CO)nc1 [Example 79, [(S)-4-(5-ethyl-pyridin-2-yl)-8-(6-trifluoromethyl-1H-benzimidazol-2-yl)-3,4-dihydro-2H-benzo[1,4]oxazin-3-yl]-methanol]	20 to 100 nM		
COC[C@H]1COc2c(-c3nc4c(F)cc(F)cc4[nH]3)cccc2N1c1ccc(C)cn1 [Example 107, (S)-8-(4,6-difluoro-1H-benzo[d]imidazol-2-yl)-3-(methoxymethyl)-4-(5-methyl-pyridin-2-yl)-3,4-dihydro-2H-benzo[b][1,4]oxazine]	501 to 1000 nM		
COC[C@H]1COc2c(-c3nc4c(C)cccc4[nH]3)cccc2N1c1ccc(C)cn1 [Example 108, (S)-3-(methoxymethyl)-8-(4-methyl-1H-benzo[d]imidazol-2-yl)-4-(5-methyl-pyridin-2-yl)-3,4-dihydro-2H-benzo[b][1,4]oxazine]	101 to 500 nM		
N-(4-tert-butylphenyl)-4-(3-chloropyridin-2-yl)piperazin-1-carboxyamide [BCTC, reference compound]		++ (20˜50%)	33%

Second part, led by results:

IC50 [1]	Compound	I.A. (inhibitory activity), % inhibition rate of writhing [2]	% inhibition rate of writhing [2]
20 to 100 nM	FC(F)(F)c1ccc2nc(-c3cccc4c3OCCN4c3ncc(Cl)cc3Cl)[nH]c2c1 [Example 18, 4-(3,5-dichloro-pyridin-2-yl)-8-(6-trifluoromethyl-1H-benzimidazol-2-yl)-3,4-dihydro-2H-benzo[1,4]oxazine]	+ (<20%)	
20 to 100 nM	FC(F)(F)c1ccc2nc(-c3cccc4c3OCCN4c3ccc(Cl)cn3)[nH]c2c1 [Example 20, 4-(5-chloro-pyridin-2-yl)-8-(6-trifluoromethyl-1H-benzimidazol-2-yl)-3,4-dihydro-2H-benzo[1,4]oxazine]	++ (20˜50%)	
20 to 100 nM	Cc1ccc(N2CCOc3c(-c4nc5ccc(C(F)(F)F)cc5[nH]4)cccc32)nc1 [Example 25, 4-(5-methyl-pyridin-2-yl)-8-(6-trifluoromethyl-1H-benzimidazol-2-yl)-3,4-dihydro-2H-benzo[1,4]oxazine]	+ (<20%)	
20 to 100 nM	Cc1ccc(N2CCOc3c(-c4nc5c(Br)cc(C(F)(F)F)cc5[nH]4)cccc32)nc1 [Example 31, 8-(4-bromo-6-trifluoromethyl-1H-benzimidazol-2-yl)-4-(5-methyl-pyridin-2-yl)-3,4-dihydro-2H-benzo[1,4]oxazine]	++ (20˜50%)	
20 to 100 nM	Cc1ccc(N2CCOc3c(-c4nc5c(F)cc(Br)cc5[nH]4)cccc32)nc1 [Example 33, 8-(6-bromo-4-fluoro-1H-benzimidazol-2-yl)-4-(5-methyl-pyridin-2-yl)-3,4-dihydro-2H-benzo[1,4]oxazine]	+++ (51-80%)	
501 to 1000 nM	C=Cc1ccc(N2c3cccc(-c4nc5ccc(OC)cc5[nH]4)c3OC[C@@H]2CO)nc1 [Example 72, (S)-(8-(6-methoxy-1H-benzo[d]imidazol-2-yl)-4-(5-vinyl-pyridin-2-yl)-3,4-dihydro-2H-benzo[b][1,4]oxazin-3-yl)methanol]		
101 to 500 nM	C=Cc1ccc(N2c3cccc(-c4nc5ccc(C)cc5[nH]4)c3OC[C@@H]2CO)nc1 [Example 74, (S)-(8-(6-methyl-1H-benzo[d]imidazol-2-yl)-4-(5-vinyl-pyridin-2-yl)-3,4-dihydro-2H-benzo[b][1,4]oxazin-3-yl)methanol]		
20 to 100 nM	C=Cc1ccc(N2c3cccc(-c4nc5c(C)c(C)ccc5[nH]4)c3OC[C@@H]2CO)nc1 [Example 77, (S)-(8-(4,5-dimethyl-1H-benzo[d]imidazol-2-yl)-4-(5-vinyl-pyridin-2-yl)-3,4-dihydro-2H-benzo[b][1,4]oxazin-3-yl)methanol]		
20 to 100 nM	CCc1ccc(N2c3cccc(-c4nc5cc(F)c(F)cc5[nH]4)c3OC[C@@H]2CO)nc1 [Example 83, [(S)-8-(5,6-difluoro-1H-benzimidazol-2-yl)-4-(5-ethyl-pyridin-2-yl)-3,4-dihydro-2H-benzo[1,4]oxazin-3-yl]-methanol]		
20 to 100 nM	CCc1ccc(N2c3cccc(-c4nc5cc(F)c(Cl)cc5[nH]4)c3OC[C@@H]2CO)nc1 [Example 84, [(S)-8-(6-chloro-5-fluoro-1H-benzimidazol-2-yl)-4-(5-ethyl-pyridin-2-yl)-3,4-dihydro-2H-benzo[1,4]oxazin-3-yl]-methanol]		
< 20 nM	COC[C@H]1COc2c(-c3nc4c(Br)cc(OC(F)(F)F)cc4[nH]3)cccc2N1c1ccc(C)cn1 [Example 105, (S)-8-(4-bromo-6-trifluoromethoxy-1H-benzimidazol-2-yl)-3-methoxymethyl-4-(5-methyl-pyridin-2-yl)-3,4-dihydro-2H-benzo[1,4]oxazine]		
101 to 500 nM	COC[C@H]1COc2c(-c3nc4ccc(OC)cc4[nH]3)cccc2N1c1ccc(C)cn1 [Example 106, (S)-8-(6-methoxy-1H-benzo[d]imidazol-2-yl)-3-(methoxymethyl)-4-(5-methyl-pyridin-2-yl)-3,4-dihydro-2H-benzo[b][1,4]oxazine]		
101 to 500 nM	COC[C@H]1COc2c(-c3nc4cc(C)ccc4[nH]3)cccc2N1c1ccc(C)cn1 [Example 109, (S)-3-(methoxymethyl)-8-(5-methyl-1H-benzo[d]imidazol-2-yl)-4-(5-methyl-pyridin-2-yl)-3,4-dihydro-2H-benzo[b][1,4]oxazine]		
101 to 500 nM	COC[C@H]1COc2c(-c3nc4ccccc4[nH]3)cccc2N1c1ccc(C)cn1 [Example 110, (S)-8-(1H-benzo[d]imidazol-2-yl)-3-(methoxymethyl)-4-(5-methyl-pyridin-2-yl)-3,4-dihydro-2H-benzo[b][1,4]oxazine]		
